Measurements published in paper PMC3074303 (Biochemistry, 2010).

Biological target: arrestin-1 (visual arrestin) (Bos taurus, UniProt P08168, F197A/F85A)
Assay: 2D 1H-15N TROSY NMR chemical shift titration fitted to a […] model
Type: binding

Sequence of arrestin-1 (visual arrestin) (P08168 whole entry F85A/F197A): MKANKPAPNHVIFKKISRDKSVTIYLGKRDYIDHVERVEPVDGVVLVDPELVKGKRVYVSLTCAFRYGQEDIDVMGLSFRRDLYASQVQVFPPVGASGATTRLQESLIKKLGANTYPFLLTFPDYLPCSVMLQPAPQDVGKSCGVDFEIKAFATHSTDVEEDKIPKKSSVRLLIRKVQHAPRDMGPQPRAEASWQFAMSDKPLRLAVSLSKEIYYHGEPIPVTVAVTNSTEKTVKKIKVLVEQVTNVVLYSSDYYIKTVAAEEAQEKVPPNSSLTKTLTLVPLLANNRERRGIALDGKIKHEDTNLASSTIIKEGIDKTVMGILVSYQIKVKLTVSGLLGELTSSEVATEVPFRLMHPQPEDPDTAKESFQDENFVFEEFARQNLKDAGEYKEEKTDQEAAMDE

- Kd: 160 ± 60 µM
SMILES: O=P(O)(O)O[C@H]1[C@H](OP(=O)(O)O)[C@@H](OP(=O)(O)O)[C@H](OP(=O)(O)O)[C@@H](OP(=O)(O)O)[C@H]1OP(=O)(O)O [IP6]
